Assay results: patent US8192767B2, “Antioxidant compositions comprising extracts of myrtle and rosemary” (Nuraging Biotech S.R.L., priority 2006, dated 2012)

Legend:
[1] = DPPH (2,2-diphenyl-1-picryl-hydrazyl) spectrophotometric antioxidant test in ethanol, 517 nm; assay type: biochemical; conditions: DPPH 6.0×10^−6 M
Text: The antioxidant activity of the combination which is the object of the present invention can be assayed in vitro using the DPPH (2,2-diphenyl-1-picryl-hydrazyl) spectrophotometric method. This method makes it possible to determine the antioxidant potential of a molecule to be assayed by measuring the variation of the absorbance of the radical DPPH in its presence at the wavelength of 517 nm (as reported in the literature) [Blois M. S., Antioxidant determination by the use of a stable free radical—Nature, 181:1199-1200; (1958)], according to the reaction: Z·+AH=ZH+A· [1] where: • Z· is the radical DPPH • AH is the single antioxidant (reducing) molecule present in the composition or in the extract • ZH is the reduced form of DPPH • A· is the free radical produced by oxidation of the antioxidant molecule.
The greater the reduction of the absorbance of the radical DPPH in solution, the greater will be the antioxidant potential of the molecule studied. The final results of the assay are expressed as EC50, i.e. as the concentration of antioxidant molecule at which there is a 50% reduction of the DPPH radical according to the following formula: % Inhibition=[A(T0)−A(Tn/A(T0)] • A(T0)=absorbance of the control sample at time 0 • A(Tn)=absorbance in the presence of the antioxidant sample at time n.
The antioxidant capacity of the combination according to the present invention was assayed in ethanol, using a DPPH concentration of 6.0×10^−6 M and final concentrations of each extract, previously solubilised in ethanol, ranging from 1 mcg/ml to 3 mg/ml. For the purposes of evaluating the synergistic effect the extracts were also assayed in a mixture in ratios ranging from 0.1:1 to 9.9:1. The myrtle and rosemary extracts were each subjected to the same extraction procedure, selected from among those indicated above, then brought to dryness and redissolved in ethanol at the desired concentrations so as to standardise the evaluation methodology. The absorbance was then determined at the wavelength of 517 nm in 1 cm quartz cells.

[2] = test system: rat pheochromocytoma PC12 cell line; assay: ATPLite test: ATP production of PC12 cells after H2O2-induced toxicity; assay type: cell-based; conditions: H2O2 200 μM without addition of extracts
Text: The test used was the ATPLite™ test (Perkin Elmer, Milan), an ATP monitoring system based on luciferase, which permits assessment of the cytostatic and proliferative effects of various biological compounds. [Cree I. A. and Andreotti P. E. Measurement of cytotoxicity by ATP-based luminescence assay in primary cell cultures and cell lines—Toxicology in Vitro, 11, 553-556; (1997); Guan S., Bao Y. M., Jiang B., An L. Protective effect of protocatechuic acid from Alpinia oxyphylla on hydrogen peroxide-induced oxidative PC12 cell death—Eur. J. Pharmacol. 24: 538; (2006)].
The rat pheochromocytoma PC12 cell line (European Collection of Cell Cultures—ECACC, Sigma Aldrich, Milan) was used to evaluate the potential protective effects of extracts of rosemary (the same extract as described above in example 1) and of myrtle (the same extract as described above in example 2) against the toxicity induced by hydrogen peroxide (H2O2). The cells were grown on 96-well plates treated with poly-D-lysine (Sigma Aldrich, Milan) in D-MEM culture medium added with fetal bovine serum (FBS), penicillin/streptomycin, gentamycin, L-glutamine (all Invitrogen, Milan). […] After 24 hours the activity of the extracts on ATP production was evaluated using a Victor 3 spectrophotometer (Perkin Elmer, Milan). […]

| Structure (SMILES) | decrease in the absorbance of DPPH ([1]; BHA 0.01 mg/ml in ethanol) | decrease in the absorbance of DPPH ([1]; BHA 0.1 mg/ml in ethanol) | decrease in the absorbance of DPPH ([1]; BHA 1 mg/ml in ethanol) | ATP production vs vehicle [2] |
| --- | --- | --- | --- | --- |
| COc1ccc(O)c(C(C)(C)C)c1 [BHA, butylated hydroxyl anisol] | 96.63% | 95.41% | 92.18% | – |
| OO [H2O2, hydrogen peroxide] | – | – | – | −80%±4.1 |
